Marks after values point to notes of the source that are not given here.
Each compound was assayed on IL-5 production (assay: In vitro inhibition of IL-5 production in human blood (phytohemagglutinin-stimulated whole blood, ELISA)). Details: test dose 1×10^−5 M (values marked *), 48 hours.
Assay type: cell-based
Procedure, shortened: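 Heparinised blood from healthy male donors, diluted threefold in RPMI 1640, preincubated 60 min at 37° C with compound (0.02% DMSO vehicle), then stimulated with 2 μg/mL phytohemagglutinin for 48 h. Supernatant IL-5 measured by ELISA; percentage inhibition at 1×10^−6 M or 1×10^−5 M.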

Cn1cnnc1SC(c1ccc(Cl)cc1)c1ccc(-n2ncc(=O)[nH]c2=O)cc1Cl (racemic) [Compound 53] was tested, and the “% inh. (percentage inhibition of IL-5 production), marked with *” value was 53* %.

Same assay, conditions: test dose 1×10^−6 M, 48 hours

First: Cc1nc(C(c2ccc(Cl)cc2)c2c(Cl)cc(-n3ncc(=O)[nH]c3=O)cc2Cl)sc1C (racemic) [Comp 16]
Second: Cc1sc(C(c2ccc(Cl)cc2)c2c(Cl)cc(-n3ncc(=O)[nH]c3=O)cc2Cl)nc1-c1cccc(F)c1 (racemic) [Comp 287]
The “% inh. (percentage inhibition of IL-5 production)” value of the first is lower: 89% for the first, 94% for the second.

Going from O=c1cnn(-c2cc(Cl)c(C(c3ccc(Cl)cc3)c3nnc(CCOc4ccccc4)o3)c(Cl)c2)c(=O)[nH]1 (racemic) [Compound 187] to O=c1cnn(-c2cc(Cl)c(C(c3ccc(Cl)cc3)c3nnc(CCc4ccccc4)o3)c(Cl)c2)c(=O)[nH]1 (racemic) [Compound 172], the “% inh. (percentage inhibition of IL-5 production)” value falls from 25% to 17%.

First: CN(C)c1cccc(-c2nnc(C(c3ccc(Cl)cc3)c3c(Cl)cc(-n4ncc(=O)[nH]c4=O)cc3Cl)o2)c1 (racemic) [Compound 182]
Second: Nc1ccccc1-c1nnc(C(c2ccc(Cl)cc2)c2c(Cl)cc(-n3ncc(=O)[nH]c3=O)cc2Cl)o1 (racemic) [Compound 211]
The “% inh. (percentage inhibition of IL-5 production)” value of the first is lower: 75% for the first, 83% for the second.

First: O=c1cnn(-c2cc(Cl)c(C(Sc3nc(-c4ccccc4)no3)c3ccc(Cl)c(C(F)(F)F)c3)c(Cl)c2)c(=O)[nH]1 (racemic) [Compound 404]
Second: O=c1cnn(-c2cc(Cl)c(C(Sc3nc4ccccc4o3)c3ccc(Cl)c(C(F)(F)F)c3)c(Cl)c2)c(=O)[nH]1 (centres unmarked) [Compound 379]
The “% inh. (percentage inhibition of IL-5 production)” value of the first is lower: 92% for the first, 95% for the second.

First: CCOCc1sc(C(c2ccc(Cl)cc2)c2c(Cl)cc(-n3ncc(=O)[nH]c3=O)cc2Cl)nc1-c1ccccc1 (racemic) [Comp 295]
Second: CN1CCN(Cc2sc(C(c3ccc(Cl)cc3)c3c(Cl)cc(-n4ncc(=O)[nH]c4=O)cc3Cl)nc2-c2ccccc2)CC1 (racemic) [Comp 302]
The “% inh. (percentage inhibition of IL-5 production)” value of the first is higher: 90% for the first, 87% for the second.

Going from Cc1nc(-c2ccccc2)sc1C(c1ccc(Cl)cc1)c1c(Cl)cc(-n2ncc(=O)[nH]c2=O)cc1Cl (racemic) [Compound 138] to O=c1cnn(-c2cc(Cl)c(C(c3ccc(Cl)cc3)c3nnc(Cc4ccccc4)o3)c(Cl)c2)c(=O)[nH]1 (racemic) [Compound 173], the “% inh. (percentage inhibition of IL-5 production)” value falls from 81% to 44%.

Going from O=c1cnn(-c2cc(Cl)c(C(c3ccc(Cl)cc3)c3csc(-c4cccnc4)n3)c(Cl)c2)c(=O)[nH]1 (racemic) [Compound 375] to O=c1cnn(-c2cc(Cl)c(C(c3ccc(Cl)cc3)c3csc(-c4ccccc4Cl)n3)c(Cl)c2)c(=O)[nH]1 (racemic) [Compound 367], the “% inh. (percentage inhibition of IL-5 production)” value falls from 91% to 74%.

Going from O=c1cnn(-c2cc(Cl)c(C(Sc3ncccn3)c3ccc(Cl)cc3)c(Cl)c2)c(=O)[nH]1 (racemic) [Compound 340] to O=c1cnn(-c2cc(Cl)c(C(c3ccc(Cl)cc3)c3cccnc3)c(Cl)c2)c(=O)[nH]1 (centres unmarked) [Comp 116], the “% inh. (percentage inhibition of IL-5 production)” value falls from 88% to 74%.

Compared with CCOc1ccc2nc(SC(c3ccc(Cl)c(C(F)(F)F)c3)c3c(Cl)cc(-n4ncc(=O)[nH]c4=O)cc3Cl)sc2c1 (centres unmarked) [Compound 394], Nc1ccc2nc(SC(c3ccc(Cl)c(C(F)(F)F)c3)c3c(Cl)cc(-n4ncc(=O)[nH]c4=O)cc3Cl)sc2c1 (centres unmarked) [Compound 389] is lower in “% inh. (percentage inhibition of IL-5 production)” value: 93% for the first, 91% for the second.

First: CC(c1ccc(Cl)c(Cl)c1)(c1nc(-c2ccccc2)c(-c2ccccc2)s1)c1c(Cl)cc(-n2ncc(=O)[nH]c2=O)cc1Cl (racemic) [Comp 228]
Second: CN(Cc1ccccc1)Cc1sc(C(c2ccc(Cl)cc2)c2c(Cl)cc(-n3ncc(=O)[nH]c3=O)cc2Cl)nc1-c1ccccc1 (racemic) [Comp 297]
The “% inh. (percentage inhibition of IL-5 production)” value of the first is lower: 81% for the first, 90% for the second.

First: O=C(NC1CCN(Cc2ccccc2)CC1)c1sc(C(c2ccc(Cl)cc2)c2c(Cl)cc(-n3ncc(=O)[nH]c3=O)cc2Cl)nc1-c1ccccc1 (racemic) [Comp 305]
Second: O=c1cnn(-c2cc(Cl)c(C(c3ccc(Cl)cc3)c3nc(-c4ccc(-c5ccccc5)cc4)cs3)c(Cl)c2)c(=O)[nH]1 (racemic) [Comp 30]
The “% inh. (percentage inhibition of IL-5 production)” value of the first is lower: 51% for the first, 57% for the second.

Going from Cc1ccoc1-c1nnc(C(c2ccc(Cl)cc2)c2c(Cl)cc(-n3ncc(=O)[nH]c3=O)cc2Cl)o1 (racemic) [Compound 207] to CCc1sc(C(c2ccc(Cl)cc2)c2c(Cl)cc(-n3ncc(=O)[nH]c3=O)cc2Cl)nc1-c1ccccc1F (racemic) [Comp 261], the “% inh. (percentage inhibition of IL-5 production)” value falls from 94% to 93%.

First: Cc1ccnc(SC(c2ccc(Cl)cc2)c2ccc(-n3ncc(=O)[nH]c3=O)cc2Cl)n1 (racemic) [Compound 75]
Second: O=c1cnn(-c2ccc(C(Sc3nc[nH]n3)c3ccc(Cl)cc3)c(Cl)c2)c(=O)[nH]1 (racemic) [Compound 55]
The “% inh. (percentage inhibition of IL-5 production)” value of the first is higher: 72% for the first, 26% for the second.

First: COc1cccc(-c2csc(C(c3ccc(Cl)cc3)c3c(Cl)cc(-n4ncc(=O)[nH]c4=O)cc3Cl)n2)c1 (racemic) [Comp 24]
Second: O=c1cnn(-c2cc(Cl)c(C(c3ccc(Cl)cc3)c3nc(-c4cccc(Cl)c4)cs3)c(Cl)c2)c(=O)[nH]1 (racemic) [Comp 19]
The “% inh. (percentage inhibition of IL-5 production)” value of the first is lower: 74% for the first, 83% for the second.

Compared with O=c1cnn(-c2cc(Cl)c(C(c3ccc(Cl)cc3)c3nc(-c4ccc(O)cc4)cs3)c(Cl)c2)c(=O)[nH]1 (racemic) [Comp 26], O=c1cnn(-c2cc(Cl)c(C(c3ccc(Cl)cc3)c3nc(-c4ccc(Cl)c(Cl)c4)cs3)c(Cl)c2)c(=O)[nH]1 (racemic) [Comp 28] is lower in “% inh. (percentage inhibition of IL-5 production)” value: 85% for the first, 73% for the second.

First: Cc1nnc(SC(c2ccc(Cl)cc2)c2ccc(-n3ncc(=O)[nH]c3=O)cc2Cl)s1 (racemic) [Compound 56]
Second: O=c1cnn(-c2ccc(C(Sc3ncnc4[nH]ncc34)c3ccc(Cl)cc3)c(Cl)c2)c(=O)[nH]1 (racemic) [Compound 74]
The “% inh. (percentage inhibition of IL-5 production)” value of the first is lower: 41% for the first, 69% for the second.

Compared with O=c1cnn(-c2ccc(C(SCc3ccc(Cl)cc3)c3ccc(Cl)cc3)c(Cl)c2)c(=O)[nH]1 (racemic) [Compound 67], O=c1cnn(-c2ccc(C(c3ccncc3)c3ccc(Cl)cc3)c(Cl)c2)c(=O)[nH]1 (centres unmarked) [Comp 112] is lower in “% inh. (percentage inhibition of IL-5 production)” value: 69% for the first, 62% for the second.

Going from CCOC(=O)c1cnc(SC(c2ccc(Cl)cc2)c2ccc(-n3ncc(=O)[nH]c3=O)cc2Cl)nc1O (racemic) [Compound 339] to Cl.O=c1cnn(-c2cc(Cl)c(C(c3ccc(Cl)cc3)c3nc(C4CCNCC4)cs3)c(Cl)c2)c(=O)[nH]1 (racemic) [Compound 230, (±)-2-[3,5-dichloro-4-[(4-chlorophenyl)[4-(4-piperidinyl)-2-thiazolyl]methyl]phenyl]-1,2,4-triazin-3,5-(2H,4H)-dione monohydrochloride], the “% inh. (percentage inhibition of IL-5 production)” value rises from 35% to 79%.

Same assay, conditions: test dose 1×10^−6 M, 48 hours, read-out: % inh. (percentage inhibition of IL-5 production)

With O=c1cnn(-c2cc(Cl)c(C(Nc3ncccn3)c3ccc(Cl)cc3)c(Cl)c2)c(=O)[nH]1 (racemic) [Compound 413, (±)-2-[3,5-dichloro-4-[(4-chlorophenyl)[(2-pyrimidinyl)amino]-methyl]phenyl]-1,2,4-triazine-3,5(2H,4H)-dione] the inhibition at 1 µM was 59%.
